For 88 molecules, melting point results are on record in a melting point compilation (Tetko et al.; mined from patent text by program, amines drawn as free bases though some values may be those of a salt).

Take `CC(C)(C)c1cc(-c2cc(C(C)(C)C)cc(C(C)(C)C)c2O)c(O)c(C(C)(C)C)c1`: the melting point (in general, the temperature, or range, at which the solid turns liquid) lay in the range of 190 to 195 °C. The value for `COc1nc(SC)nc(OC)c1C=CC(C)=O` was 112 °C; that for `N#CSc1ccc(N)c(C(=O)c2ccccn2)c1` was 102 to 104 °C. `CCCCNC(=O)C(=O)Nc1ccc(OC)cc1[N+](=O)[O-]`: the melting point fell in the range of 127 to 128 °C. The value for `CCCCCC(C)C(C)c1cc(O)c(CN2CCN(C)CC2)c(O)c1` (stereo not drawn) was 129 to 133 °C; that for `CC(C)c1nc2c(cc1CO)COC(=O)N2c1ccc(F)cc1` was 154 °C; that for `Cn1cc(C(=O)NCc2ccc(Cl)cc2)c(=O)c2sc(CO)c(COCC[Si](C)(C)C)c21` was 193 to 194 °C. In the case of `CCOP(=O)(OCC)Oc1c(C2CCN(CCCCNC(=O)c3ccc(-c4ccc(C#N)cc4)cc3)CC2)ccc2c1CCCC2` it was 90 °C; in that of `C[C@H]1CC[C@H]2C(C)(C)[C@@H](O)[C@@H](OS(=O)(=O)c3ccccc3)C[C@]23Oc2c(c(O)cc4c2CNC4=O)C[C@]13C`, 142 to 144 °C.

Molecule `O=C(O)c1ccc(C(=O)O)c(-c2nc3ccccc3[nH]2)c1` showed a melting point of 312 to 314 °C.

In turn, `COc1ccc2c(c1)CC(=O)C2` showed a melting point of 74 to 78 °C. The value for `CC(C)OC(=O)N1CCC(c2nc3ccc(-c4ccc(C(N)=O)c(F)c4)cc3o2)CC1` was 178 to 181 °C; that for `COc1cc(O)cc2oc(=O)cc(C)c12` was 261 to 263 °C. The value for `Cc1oc(-c2ccccc2)nc1COc1ccc(CCOS(C)(=O)=O)cc1` was 66 to 67 °C; that for `CN(C)C(c1cccc(F)c1)C1CCC(=O)CC1` (stereo not drawn) was 72 to 75 °C; that for `CC(C)Sc1ccc(O)cc1O` was 67 °C. In the case of `Cc1c(CNCC2CCOCC2)[nH]c2ccc(NC(=O)c3ccc(OC[C@@H]4CCCO4)cc3)cc12` it was 146 to 147 °C; in that of `OC1CSC(Oc2cccn3ncnc23)C(O)C1O` (stereo not drawn), 155 °C. In turn, `Cc1cn(-c2cccc(C3=Nc4ccc(-c5ccccc5F)cc4NC(=O)C3)c2)c(C)n1` returned a melting point of 92 °C. In the case of `O=C1C(Cl)=C(N2CCN(S(=O)(=O)c3ccccc3C(F)(F)F)CC2)C(=O)c2ccccc21`, the melting point lay within 122 to 124 °C.

Molecule `O=C(SCCC(=O)N1C(c2ccccc2O)CC[C@H]1C(=O)N[C@@H](Cc1ccccc1)C(=O)O)c1ccccc1` (stereo partly drawn) showed a melting point of 72 to 102 °C. In the case of `CCOP(=O)(OCC)C(Sc1cc(Br)ccc1O)=P(OCC)(OCC)OCC` it was 118 to 120 °C; in that of `Cn1ccc2cc(N3Cc4ccc(OC(F)(F)C(F)Cl)cc4C3=O)ccc21` (stereo not drawn), 200 to 205 °C. In turn, `CS(=O)(=O)OCCN1c2ccccc2Oc2ccccc21` came in with a melting point of 81 to 83 °C.

With `CCCOC(C)Cc1ccc(-c2ccc(O)cc2)cc1` (single isomer, unassigned; (-)), the melting point lay within 52 to 54 °C. The value for `NNc1ccnc2c(NC(=O)c3c(Cl)cccc3Cl)cc(Cl)cc12` was 142 to 150 °C. `N/C(=C1/Sc2ccccc2C1=O)c1ccccc1[N+](=O)[O-]` displayed a melting point of 185 to 186 °C. In the case of `COc1cc(C(=O)NS(=O)(=O)c2ccccc2C)ccc1Cc1cccc2ccc(CCCC(=O)N(C)C)cc12` it was 166 to 168 °C; in that of `CCCN(Cc1ccco1)S(=O)(=O)c1ccc(OC)c2oc(C(C)=O)cc12`, 109 to 111 °C; in that of `Cc1ccc2c(c1)C(NC(=O)CCl)CC(C)(C)O2` (stereo not drawn), 147 to 148 °C. Molecule `O=C(CNc1ccccc1)Nc1ccc(Cl)cc1C(=O)O` gave a melting point of 210 to 212 °C. In the case of `COCc1cc(C(O)CN(Cc2ccccc2)Cc2ccccc2)ccc1OCc1ccccc1` (stereo not drawn) it was 52 to 57 °C; in that of `O=C(O)CC(CCCc1ccc(O)cc1)CC(=O)O`, 107 to 108 °C. In the case of `O=C(Nc1cc2ccccc2cn1)c1cncnc1NCc1ccncc1` it was 218 to 220 °C; in that of `N#Cc1ccc2ccc(Br)cc2c1`, 126 to 128 °C.

Take `NC(=S)c1ccc2c(c1)Nc1ccccc1S2`: the melting point lay in the range of 208 to 209 °C.

In turn, `C[C@@H](NC(=O)c1c[nH]c2ncc(-c3nn(C)c4cc(Cl)ccc34)nc12)C(=O)N1CC(F)C1` returned a melting point of 257 to 260 °C. In the case of `N#CC(C(=O)Nc1ccccc1)C(=O)c1nn(-c2ccccc2)c2c1CSc1ccccc1-2` (stereo not drawn) it was 228 to 230 °C. In turn, `O=NSC1(CCOC(=O)CCC(=O)O)C2CC3CC(C2)CC1C3` (stereo not drawn) gave a melting point of 63 to 70 °C. Molecule `C/C(=C\CNc1ncnc2nc(N(C)C)[nH]c12)CO` gave a melting point of 245 to 249 °C.

For `Cc1ccc(S(=O)(=O)Nc2ccc(C(N)=O)cc2C(N)=O)cc1`, the melting point is 212 to 215 °C. For `O=C(Nc1cccc(C(F)(F)F)c1)c1ccccc1O`, the melting point is 188 to 191 °C. The value for `O=C(NNc1ccccc1Cl)c1ccccc1F` was 105 to 107 °C; that for `CO/N=C1\CCc2ccccc2C1=Cc1ccc(S(C)(=O)=O)cc1` was 175 to 178 °C. In the case of `CC(C)(C)c1cc(NC(=O)Nc2ccc(Oc3ccncc3)cc2)[nH]n1` it was 178 to 179 °C; in that of `Clc1cc(Cl)cc(Oc2cccc(-c3nnc(Nc4ccc(Cl)c(Cl)c4)s3)c2)c1`, 242 to 243 °C. In the case of `O=C(O)c1ccc(-c2cnc3c(c2)N(Cc2ccccc2)CCN3)cc1` it was greater than 300 °C; in that of `CCCOc1ccc(S(=O)(=O)N2CCN(Cc3ccccc3)CC2)cc1-c1nc2cc(N)c([N+](=O)[O-])cc2c(=O)[nH]1`, 198 to 200 °C.

In turn, `Cc1nc2c(c(N)c1C(=O)O)c1ccccc1n2C` came in with a melting point of 230 to 232 °C.

`CCC1=C(C(=O)O)C(C(F)(F)F)Oc2ccc(Cl)cc21` (stereo not drawn): the melting point fell in the range of 171 to 172 °C. In the case of `O=S(=O)(O)c1cccc(Nc2ccnc3cc(Cl)ccc23)c1` it was greater than 300 °C. The value for `CC1CCC(Nc2ccc(Br)cc2)c2ncc(C(=O)O)c(=O)n21` (single isomer, unassigned; (-)) was 210 to 211 °C; that for `N#CC1CCN(C(c2ccccc2)(c2ccccc2)c2ccccc2)CC1` was 206 °C; that for `O=C(c1cccs1)c1cnn2c(-c3cccc(-c4ccc(CO)cc4)c3)ccnc12` was 106 to 110 °C. The value for `COC(=O)c1nc(CN2CCOCC2)n(-c2ccc(Cl)cc2C(=O)c2ccccc2Cl)n1` was 141 to 143 °C; that for `O=[N+]([O-])c1cc2nc(O)c(O)nc2c2[nH]ncc12` was greater than 300 °C. `COC(=O)c1cc(Cl)c(Oc2ccc(OC)c(C(=O)c3ccc(F)cc3)c2)c(Cl)c1` returned a melting point of 112 to 115 °C. In the case of `CCOC(=O)C1=C(COCCn2c(C)nc3ccccc32)NC(C)=C(C(=O)NC(C)(C)C)C1c1ccccc1Cl` (stereo not drawn) it was 157 to 161 °C; in that of `O=[N+]([O-])c1cnc2ccccc2c1Cl`, 118 to 119 °C; in that of `CCN1CCCC1CNC(=O)c1ccc(Cl)nc1Cl` (stereo not drawn), 73 to 74 °C. Take `O=C(c1cccnc1Cl)N1CCN=C1Cc1ccccc1Cl`: the melting point was 128 to 130 °C. Molecule `CNc1cc(Oc2ccc3c(c2)OCCN3C(=O)Nc2cccc(C(F)(F)F)c2)ncn1` gave a melting point of 180 °C. Regarding `CCOC(=O)/C(=N\OC12CCC(CC1)CC2)c1csc(N)n1`, the melting point is 139 to 140 °C. In the case of `Oc1ccc(-c2ncc3ncc(Cl)cc3n2)cc1` it was 231 to 232 °C.

In turn, `COC(=O)C(=NOCF)c1ccccc1COc1ccccc1C` came in with a melting point of 101 to 102 °C. The value for `O=C1C=CN=CC1[N+](=O)[O-]` (stereo not drawn) was 282 to 284 °C.

The molecule `C/C(=C(\C#N)C(N)=S)N1CCCN(c2ccccc2Cl)CC1` displayed a melting point of 123 to 124 °C. `COc1ccc(CNC(=O)c2cc([N+](=O)[O-])ccc2N[C@@H](CO)CCSC)cc1OC` had a melting point of 150 to 152 °C.

Molecule `CCCC(=CC=CC(C)=CC(=O)O)c1cc(C(C)(C)C)cc(C(C)(C)C)c1` yielded a melting point of 143 to 144 °C. The molecule `CC[C@@H](C)[C@H](N)C(O)(c1ccccc1)c1ccccc1` came in with a melting point of 128 to 129 °C. In turn, `COC(=O)c1cc(C[C@@H]2COc3ccc(OCc4nc5cc(F)ccc5s4)cc3[C@@H]2O)ccc1OC` (relative stereo) had a melting point of 160 to 162 °C. In the case of `Nc1nc(-c2cc(Cl)ccc2Cl)nc(N2CCN(CCO)CC2)n1` it was 185 to 187 °C; in that of `O=C(Nc1cccc(C(F)(F)F)c1)c1cccnc1NCc1cccc(O)c1`, 143 to 146 °C.

For the molecule `C=CC1CC2=CC(=O)CCC2C2CCC3(CC)C(O)CCC3C12` (stereo not drawn), the melting point lay in the range of 155 to 156 °C. As to `COc1cccc(/C=C/c2nc3c(c(=O)n(C)c(=O)n3C)n2C)c1OC`, the melting point was in the range of 234 to 237 °C. As to `CCOC(=O)c1cc2cc(C)cc(NS(=O)(=O)c3cccs3)c2[nH]1`, the melting point was in the range of 168 to 169 °C. Molecule `O=C(CSc1ncccn1)NC/C=C\COc1cc(CN2CCCCC2)ccn1` yielded a melting point of 103 to 106 °C. `O=C1N(Cc2ccccn2)c2ccc(Br)cc2C12COc1cc3c(cc12)OCCO3` (stereo not drawn) registered a melting point greater than 250 °C.

On to `CCOC(=O)NCn1cccc1C(=O)c1ccc(Cl)cc1Cl`, for which the melting point fell in the range of 79 to 80 °C. Regarding `CC(C)(O)c1cc(OCc2ccccc2)cc(C(C)(C)O)c1`, the melting point fell in the range of 146 to 147 °C. In the case of `CCOC(=O)NNC(=O)Nc1c(F)c(F)c(F)c(F)c1F` it was 180 to 182 °C; in that of `Cc1nc(-c2cccnc2)sc1-c1ccnc(Nc2ccc(N3CCOCC3)cc2)n1`, 240 to 242 °C; in that of `C=CCc1c(C(C)C)nc(C(C)C)c(CO)c1-c1ccc(F)cc1`, 69 to 71 °C. In the case of `CN1CCN(C2CCCc3nc4ccccc4c(N)c32)CC1` (stereo not drawn) it was 200 to 202 °C. Consider `COc1cc(C(=O)CC(=O)c2ccc(O)cc2O)cc(OC)c1OC`, for which the melting point is 284 to 286 °C. The value for `CCCn1nc2c(N)nc3ccccc3c2c1CC(C)(C)NC(C)=O` was 182 to 183 °C; that for `O=c1nc(-c2cnccn2)sc2ccccc12` was 241 to 242 °C. As to `CC(C)N(CCON=C1c2ccccc2C2CC2c2ccccc21)C(C)C` (stereo not drawn), the melting point was 97 to 98 °C.
